Laboratory results from US9487749B2 (priority 2009, dated 2016).
Values joined by “and” are separate entries in the source; they are usually repeats but may differ in a detail not shown here. Equal values may be shown once. “Also recorded” adds a separate entry of the source.

Experiments:
Bacillus coagulans = Bacillus coagulans growth in simulated gastric acid supplemented with MSM; assay type: cell-based; settings: simulated gastric acid pH 1.2
[1] = test system: ATCC strain 8739 Escherichia coli; test: Bromcresol Purple colour change with E. coli; assay type: cell-based
Method: Bromcresol Purple is an indicator dye that turns yellow in the presence of E. coli bacteria. […] All concentrations were plated out to 10^−7 dilutions to ascertain the log reduction.
Flake OptiMSM was weighed out using a certified Mettler Toledo AG245 balance SN: 1115210833 and aliquoted for each concentration. […] Tubes were cooled to room temperature which was approximately 20° C. All tubes were then spiked with the same dilution of Escherichia coli that gave a level of colony forming units at 6.0×10^6/mL (6.8). The tubes were then incubated at 25° C. Daily observation for color change was performed during the first seven days. The tubes were mixed periodically to ensure that the OptiMSM was well equilibrated at all times. A positive and negative control was ascertained.

Salmonella typhimurium = test: USP Antimicrobial Effectiveness Test (AET) of MSM supplemented TSB; assay type: cell-based; parameters: key: Colonies too numerous to count (TNTC); settings: 48 hrs
[2] = test system: Swine-like H1N1 Influenza A virus strain A/California/04/2009; assay type: cell-based
[3] = test system: Escherichia coli (ATCC strain 8739); test: E. coli growth profile in sterile and non-sterile MSM in TSB or saline (USP <51> AET basis, MacConkey agar streak); settings: for Growth profile of E. coli: 5-16% MSM
Method: The USP <51> AET is a compendial (United States Pharmacopeia) antimicrobial effectiveness test method for determining if a preservative is effective based upon a verified and validated methodology.
All tubes except the negative controls were spiked with 250 μl of a 1.2×10^8 culture, which yields an initial E. coli population density of 1.2×10^6/mL. Tubes were incubated at 25° C.

[4] = test system: MDCK cells (ATCC # CCL-34); test: Cytotoxicity of MSM on host cells; settings: for Test Product Cytotoxicity: MDCK
Method: Determination of test product cytotoxicity. The highest non-cytotoxic concentration of the test product was determined prior to the test.
B. Toxicity Control for Pre-Treatment Test.

CS(C)(=O)=O [MSM, Methylsulfonylmethane]
Log Growth of Bacillus coagulans in duplicate (Bacillus coagulans; 5% MSM, hour 3): 0 log
Log Growth of Bacillus coagulans average (Bacillus coagulans; 5% MSM, hour 3): 0 log
Log Growth of Bacillus coagulans in duplicate (Bacillus coagulans; 5% MSM, hour 6): 0 log
Log Growth of Bacillus coagulans average (Bacillus coagulans; 5% MSM, hour 6): 0 log
Log Growth of Bacillus coagulans in duplicate (Bacillus coagulans; 5% MSM, hour 9): 0 log
Log Growth of Bacillus coagulans average (Bacillus coagulans; 5% MSM, hour 9): 0 log
Log Growth of Bacillus coagulans in duplicate (Bacillus coagulans; 5% MSM, hour 12): 0 log
Log Growth of Bacillus coagulans average (Bacillus coagulans; 5% MSM, hour 12): 0 log
Log Growth of Bacillus coagulans average (Bacillus coagulans; 5% MSM, hour 15): 0.26 log
Log Growth of Bacillus coagulans in duplicate (Bacillus coagulans; 5% MSM, hour 24): 0 log
Log Growth of Bacillus coagulans average (Bacillus coagulans; 5% MSM, hour 24): 0 log
Log Growth of Bacillus coagulans in duplicate (Bacillus coagulans; 5% MSM, hour 48): 0 log
Log Growth of Bacillus coagulans average (Bacillus coagulans; 5% MSM, hour 48): 0 log
Log Growth of Bacillus coagulans in duplicate (Bacillus coagulans; […] MSM, hour 0): 0 log
Log Growth of Bacillus coagulans in duplicate (Bacillus coagulans; […] MSM, hour 3): 0 log
Log Growth of Bacillus coagulans in duplicate (Bacillus coagulans; […] MSM, hour 9): 0 log
Log Growth of Bacillus coagulans average (Bacillus coagulans; […] MSM, hour 9): 0 log
Log Growth of Bacillus coagulans in duplicate (Bacillus coagulans; […] MSM, hour 12): 0 log
Log Growth of Bacillus coagulans in duplicate (Bacillus coagulans; […] MSM, hour 15): 0 log
Log Growth of Bacillus coagulans average (Bacillus coagulans; […] MSM, hour 15): 0 log
Log Growth of Bacillus coagulans in duplicate (Bacillus coagulans; […] MSM, hour 24): 0 log
Log Growth of Bacillus coagulans average (Bacillus coagulans; […] MSM, hour 24): 0 log
Log Growth of Bacillus coagulans in duplicate (Bacillus coagulans; […] MSM, hour 48): 0 log
Log Growth of Bacillus coagulans average (Bacillus coagulans; […] MSM, hour 48): 0 log
reduction of viability (Streptococcus Pneumonia): approximately 5%
Bromcresol Purple colour of the broth ([1]; 5-7% MSM, Day one): color change of the broth to yellow
Bromcresol Purple colour of the broth ([1]; 8% MSM, listed as order: Day one, Day three): slight clearing of color; also recorded: turning to the typical yellow color
Bromcresol Purple colour of the broth ([1]; 9% MSM, Day 7): turning to a yellow color
Bromcresol Purple colour of the broth ([1]; 10%-16% MSM, listed as order: Day 7, Day 30): No color change; also recorded: no signs of change
AET test results (microorganism count) (Salmonella typhimurium; 1:100 dilution of MSM in TSB): TNTC
AET test results (microorganism count) (Salmonella typhimurium; 1:1000 dilution of MSM in TSB): TNTC
Average Log Stimulation [2]: 0.17 log10
Average Percent Stimulation [2]: 32.39%
Average TCID50 [2]: 3.67 log10 and 4.42 log10 and 4.67 log10 and 5.00 log10 and 4.58 log10 and 4.17 log10
Log Stimulation [2]: 0.17 log10
Percent Stimulation [2]: 32.39%
TCID50 [2]: 3.75 log10 and 3.50 log10 and 4.00 log10 and 4.50 log10 and 4.25 log10 and 4.75 log10 and 5.00 log10
log10 reduction [2]: 0.66 log10 and 0.41 log10
reduction of virus population [2]: more than 1.0 log10
Test Product Cytotoxicity (Vero cells (ATCC#CCL-81)): 00
visual signs of growth in culture tubes ([3]; 5-9% MSM in TSB/TSBA media, 24 hours): visible signs of growth
visual signs of growth in culture tubes ([3]; 5-10% MSM in TSB/TSBA, 48 hours, 72 hours): signs of heavy growth
visual signs of growth in culture tubes ([3]; 10-16% MSM in TSB/TSBA media, 24 hours): no signs of growth
visual signs of growth in culture tubes ([3]; 11% MSM in TSB/TSBA, 48 hours, 72 hours): Apparent growth
visual signs of growth in culture tubes ([3]; 12-15% MSM in TSB/TSBA, 48 hours, 72 hours): little to no observable signs of growth
visual signs of growth in culture tubes ([3]; MSM in saline tubes, 24 hours): did not show any signs of growth
Growth profile of E. coli ([3]; after 24 hours, NS (sterile saline added to non-sterile MSM)): Heavy; also recorded: Moderate
Growth profile of E. coli ([3]; after 24 hours, NSA (saline + MSM, then sterilized)): Heavy; also recorded: Moderate
Growth profile of E. coli ([3]; after 24 hours, TSB (sterile TSB added to non-sterile MSM)): Heavy and Moderate and Few
Growth profile of E. coli ([3]; after 24 hours, TSBA (TSB + MSM, then sterilized)): Heavy and Moderate and Few
Growth profile of E. coli ([3]; after 48 hours, NS): Heavy; also recorded: Moderate
Growth profile of E. coli ([3]; after 48 hours, NSA): Heavy; also recorded: Moderate
Growth profile of E. coli ([3]; after 48 hours, TSB): Heavy and Moderate and Few
Growth profile of E. coli ([3]; after 48 hours, TSBA): Heavy and Moderate and Few
Growth profile of E. coli ([3]; after 72 hours, NS): Heavy; also recorded: Moderate
Growth profile of E. coli ([3]; after 72 hours, NSA): Heavy; also recorded: Moderate
Growth profile of E. coli ([3]; after 72 hours, TSB): Heavy and Moderate and Few
Growth profile of E. coli ([3]; after 72 hours, TSBA): Heavy and Moderate and Few
Test Product Cytotoxicity ([4]; 0.5%): 00
Test Product Cytotoxicity ([4]; 1%): 00
Test Product Cytotoxicity ([4]; 2%): 00
Test Product Cytotoxicity ([4]; 3%): 00
Test Product Cytotoxicity ([4]; 4%): 00
Test Product Cytotoxicity ([4]; 5%): 00
cytotoxic effect ([4]; MSM concentrations 6% through 0.5%): no visible cytotoxic effect
